Drawing on patent publication US20230265151A1, “GIP/GLP1 CO-AGONIST COMPOUNDS” (priority 2020, published 2023), this text covers Emax and EC50 for four compounds.

Read-outs that look alike come from different tables or passages of the source. *1 amine or outer side, *2 acyl side, *3 side chain or, on linkers, in order; H or OH if unused. Where a SMILES comes first, the peptide text is derived from it. Side-chain parts run from the residue outwards. [ ]: non-standard residue; d: D form. The star is where a group is joined. αMePhe(2-F) = C[C@](N)(Cc1ccccc1F)C(=O)O; γGlu = O=C(O)[C@H](CCC(=O)[*:2])N[*:1]; C14 diacid = O=C(O)CCCCCCCCCCCCC(=O)*; αMeY = C[C@](N)(Cc1ccc(O)cc1)C(=O)O; 4Pal = N[C@@H](Cc1ccncc1)C(=O)O; αMeL = CC(C)C[C@](C)(N)C(=O)O; Lauroyl = CCCCCCCCCCCC(=O)*; Orn = NCCC[C@H](N)C(=O)O; AEEA = NCCOCCOCC(=O)O; Aib = CC(C)(N)C(=O)O Some results are limits rather than exact numbers.

Common to all, as to assay type: cell-based
Assay [1] has as its target hGLP-1R (Homo sapiens, UniProt P43220). Nature of the assay: Functional cAMP formation (HTRF) in HEK-293 clonal cells expressing hGLP-1R, 0.1% bovine casein, without or with 1.0% human serum albumin. Also noted: expressed in transfected cells. The conditions noted are these: for Emax: read-out: hGLP-1R Emax, % ± SEM; for EC50: read-out: hGLP-1R EC50, nM (SEM, n). An outline of the steps:
(§1)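 Cells were stimulated with peptide for 30 min at 37° C, then lysed in buffer carrying cAMP-d2 and anti-cAMP Eu3+-cryptate for a competitive HTRF read after at least 60 min at room temperature. The 665/620 nm ratio was converted to nM cAMP against a standard curve.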
In general terms: Cyclic AMP is a second messenger, typically raised through Gs and lowered through Gi signalling.

Assay [2] has as its target T1, hGCGR (Homo sapiens, UniProt P47871).
T1 construct: expressed in transfected cells
The assay can be described thus: Functional cAMP formation (HTRF) in HEK-293 clonal cells expressing hGCGR, 0.1% bovine casein, without or with 1.0% human serum albumin. The conditions noted are these: read-out: hGCGR EC50, nM (SEM, n). The procedure, abridged: as §1

The target in assay [3] is T2, hGIPR (Homo sapiens, UniProt P48546).
T2 construct: expressed in transfected cells
T2 sequence (P48546 22-466): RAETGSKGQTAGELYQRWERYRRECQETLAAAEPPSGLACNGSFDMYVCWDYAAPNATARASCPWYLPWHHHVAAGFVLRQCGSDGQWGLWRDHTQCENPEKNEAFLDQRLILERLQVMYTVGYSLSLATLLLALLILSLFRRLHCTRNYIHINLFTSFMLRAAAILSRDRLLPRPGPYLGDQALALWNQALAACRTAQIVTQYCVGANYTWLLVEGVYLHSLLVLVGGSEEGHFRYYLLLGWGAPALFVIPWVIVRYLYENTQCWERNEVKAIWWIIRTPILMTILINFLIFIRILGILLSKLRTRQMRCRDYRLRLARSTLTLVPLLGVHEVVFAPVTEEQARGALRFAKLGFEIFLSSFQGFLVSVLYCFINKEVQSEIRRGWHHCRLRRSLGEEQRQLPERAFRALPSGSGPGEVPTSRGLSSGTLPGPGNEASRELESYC
The assay can be described thus: Functional cAMP formation (HTRF) in HEK-293 clonal cells expressing hGIPR, 0.1% bovine casein, without or with 1.0% human serum albumin. The conditions noted are these: for Emax: read-out: hGIPR Emax, % ± SEM; for EC50: geometric mean, read-out: hGIPR EC50, nM (SEM, n). The procedure, abridged: as §1

Where [4] appears, read: HEK293, cAMP, 37° C., 0.1% bovine casein and 1.0% human serum albumin, percent of maximal response to GLP-1(7-36)NH2.
Setting [5] is: cAMP, 37° C., 0.1% bovine casein (no human serum albumin), geometric mean.
Setting [6] is: cAMP, 37° C., 0.1% bovine casein and 1.0% human serum albumin, geometric mean (SEM, n).
The mark [7] stands for this setting: HEK293, cAMP, 37° C., 0.1% bovine casein and 1.0% human serum albumin, percent of maximal response to GIP(1-42)NH2.
[8] abbreviates: cAMP, 37° C., 0.1% bovine casein (no human serum albumin).
The mark [9] stands for this setting: HEK293, 0.1% bovine casein and 1.0% human serum albumin, 37° C., percent of maximal response to GLP-1(7-36)NH2.
The mark [10] stands for this setting: HEK293, percent of maximal response to GLP-1(7-36)NH2, 37° C., 0.1% bovine casein, arithmetic mean.
Where [11] appears, read: 0.1% bovine casein and 1.0% human serum albumin, 37° C., geometric mean.
[12] abbreviates: cAMP, incubated at 37° C., 0.1% bovine casein (no human serum albumin), geometric mean.
Setting [13] is: 0.1% bovine casein and 1.0% human serum albumin, 37° C.
The mark [14] stands for this setting: HEK293, 0.1% bovine casein and 1.0% human serum albumin, 37° C., percent of maximal response to GIP(1-42)NH2.
Setting [15] is: HEK293, percent of maximal response to GIP(1-42)NH2, 37° C., 0.1% bovine casein, arithmetic mean.

hGLP-1R, sequence (P43220 24-463): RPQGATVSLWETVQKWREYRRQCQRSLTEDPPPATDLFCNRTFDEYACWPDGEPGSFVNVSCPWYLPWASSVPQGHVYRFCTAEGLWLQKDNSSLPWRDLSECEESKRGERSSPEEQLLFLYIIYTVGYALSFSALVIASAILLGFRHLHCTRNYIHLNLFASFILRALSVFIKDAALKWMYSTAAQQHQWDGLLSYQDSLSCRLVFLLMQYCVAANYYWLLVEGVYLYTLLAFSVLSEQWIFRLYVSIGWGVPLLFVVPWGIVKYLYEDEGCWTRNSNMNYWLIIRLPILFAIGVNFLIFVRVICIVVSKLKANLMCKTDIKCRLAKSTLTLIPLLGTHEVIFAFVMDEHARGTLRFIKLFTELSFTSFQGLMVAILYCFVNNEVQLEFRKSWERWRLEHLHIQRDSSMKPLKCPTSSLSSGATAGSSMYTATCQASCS
T1 sequence (P47871 26-477): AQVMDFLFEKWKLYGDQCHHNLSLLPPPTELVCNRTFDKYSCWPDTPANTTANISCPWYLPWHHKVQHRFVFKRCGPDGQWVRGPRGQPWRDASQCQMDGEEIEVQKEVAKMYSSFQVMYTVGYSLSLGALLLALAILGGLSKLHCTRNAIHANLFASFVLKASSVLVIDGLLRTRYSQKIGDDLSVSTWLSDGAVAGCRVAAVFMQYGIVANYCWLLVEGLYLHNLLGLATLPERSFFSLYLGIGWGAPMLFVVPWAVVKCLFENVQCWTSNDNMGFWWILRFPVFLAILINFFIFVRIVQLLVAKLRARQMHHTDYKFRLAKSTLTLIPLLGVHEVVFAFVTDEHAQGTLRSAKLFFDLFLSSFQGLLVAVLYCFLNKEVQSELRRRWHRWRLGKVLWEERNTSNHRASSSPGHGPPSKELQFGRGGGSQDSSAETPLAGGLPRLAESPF

For the compound `CCCCCCCCCCCC(=O)N[C@@H](CCC(=O)NCCOCCOCC(=O)NCCOCCOCC(=O)NCCCC[C@H](NC(=O)CNC(=O)[C@H](CC(=O)O)NC(=O)[C@H](CC(C)C)NC(=O)[C@](C)(CC(C)C)NC(=O)[C@@H](NC(=O)C(C)(C)NC(=O)[C@H](CCCCNC(=O)COCCOCCNC(=O)COCCOCCNC(=O)CC[C@H](NC(=O)CCCCCCCCCCC)C(=O)O)NC(=O)[C@H](CC(=O)O)NC(=O)[C@H](CO)NC(=O)[C@@H](NC(=O)[C@](C)(Cc1ccccc1F)NC(=O)[C@@H](NC(=O)CNC(=O)[C@H](CCC(=O)O)NC(=O)C(C)(C)NC(=O)[C@@H](N)Cc1ccc(O)cc1)[C@@H](C)O)[C@@H](C)O)[C@@H](C)CC)C(=O)N[C@@H](C)C(=O)N[C@@H](CCC(N)=O)C(=O)NC(C)(C)C(=O)N[C@@H](CCC(=O)O)C(=O)N[C@@H](Cc1ccccc1)C(=O)N[C@H](C(=O)N[C@H](CCC(=O)O)C(=O)N[C@@](C)(Cc1ccc(O)cc1)C(=O)N[C@@H](CC(C)C)C(=O)N[C@H](C(=O)N[C@@H](CCC(=O)O)C(=O)NCC(=O)NCC(=O)N1CCC[C@H]1C(=O)N[C@@H](CO)C(=O)N[C@@H](CO)C(=O)NCC(=O)N[C@@H](C)C(=O)N1CCC[C@H]1C(=O)N1CCC[C@H]1C(=O)N1CCC[C@H]1C(=O)N[C@@H](CO)C(N)=O)[C@@H](C)CC)[C@@H](C)CC)C(=O)O` [Example 445] (H-Y[Aib]EGT[αMePhe(2-F)]TSDK([AEEA-AEEA-γGlu-Lauroyl])[Aib]I[αMeL]LDGK([AEEA-AEEA-γGlu-Lauroyl])AQ[Aib]EFI[dE][αMeY]LIEGGPSSGAPPPS-NH2; N-terminus assumed), the Emax (usually the maximal effect, on the per cent scale that the assay sets) in assay [1] (setting [4]) amounted to 100%; in assay [3] (setting [7]), 91.4%. For the same compound, the concentration for a half-maximal effect (EC50) – broadly, the concentration needed to bring the measured effect to its halfway point – is 0.0781 nM in assay [1] (setting [5]); 13.1 nM in assay [1] (setting [6]); above 9950 nM in assay [2] (setting [5]); above 9950 nM in assay [2] (setting [6]); 0.00728 nM in assay [3] (setting [8]).
In the case of `CC[C@H](C)[C@H](NC(=O)[C@H](CC(C)C)NC(=O)[C@](C)(Cc1ccc(O)cc1)NC(=O)[C@@H](CCC(=O)O)NC(=O)[C@@H](NC(=O)[C@H](Cc1ccccc1)NC(=O)[C@H](CCC(=O)O)NC(=O)C(C)(C)NC(=O)[C@H](CCC(N)=O)NC(=O)[C@H](C)NC(=O)[C@H](CCCCNC(=O)COCCOCCNC(=O)COCCOCCNC(=O)CC[C@H](NC(=O)CCCCCCCCCCCCC(=O)O)C(=O)O)NC(=O)[C@H](CCCN)NC(=O)[C@H](CC(=O)O)NC(=O)[C@H](CC(C)C)NC(=O)[C@](C)(CC(C)C)NC(=O)[C@@H](NC(=O)C(C)(C)NC(=O)[C@H](Cc1ccncc1)NC(=O)[C@H](CC(=O)O)NC(=O)[C@H](CO)NC(=O)[C@@H](NC(=O)[C@](C)(Cc1ccccc1F)NC(=O)[C@@H](NC(=O)CNC(=O)[C@H](CCC(=O)O)NC(=O)C(C)(C)NC(=O)[C@@H](N)Cc1ccc(O)cc1)[C@@H](C)O)[C@@H](C)O)[C@@H](C)CC)[C@@H](C)CC)C(=O)N[C@@H](CCC(=O)O)C(=O)NCC(=O)NCC(=O)N1CCC[C@H]1C(=O)N[C@@H](CO)C(=O)N[C@@H](CO)C(=O)NCC(=O)N[C@@H](C)C(=O)N1CCC[C@H]1C(=O)N1CCC[C@H]1C(=O)N1CCC[C@H]1C(=O)N[C@@H](CO)C(=O)N[C@@H](CCCCNC(=O)COCCOCCNC(=O)COCCOCCNC(=O)CC[C@H](NC(=O)CCCCCCCCCCCCC(=O)O)C(=O)O)C(N)=O` [Example 359], the Emax in assay [1] (setting [4]) was found to be 95.1%; in assay [3] (setting [7]), 81%. In addition, the EC50 was 1.18 nM in assay [1] (setting [5]), above 10100 nM in assay [2] (setting [5]), above 9950 nM in assay [2] (setting [6]) and 0.0261 nM in assay [3] (setting [8]).
`CC[C@H](C)[C@H](NC(=O)[C@H](CC(C)C)NC(=O)[C@](C)(Cc1ccc(O)cc1)NC(=O)[C@@H](CCC(=O)O)NC(=O)[C@@H](NC(=O)[C@H](Cc1ccccc1)NC(=O)[C@H](CCC(=O)O)NC(=O)C(C)(C)NC(=O)[C@H](CCC(N)=O)NC(=O)[C@H](C)NC(=O)[C@H](CCCCNC(=O)COCCOCCNC(=O)COCCOCCNC(=O)CC[C@H](NC(=O)CCCCCCCCCCCCC(=O)O)C(=O)O)NC(=O)[C@H](CCCN)NC(=O)[C@H](CC(=O)O)NC(=O)[C@H](CC(C)C)NC(=O)[C@](C)(CC(C)C)NC(=O)[C@@H](NC(=O)C1(NC(=O)[C@H](Cc2ccncc2)NC(=O)[C@H](CC(=O)O)NC(=O)[C@H](CO)NC(=O)[C@@H](NC(=O)[C@](C)(Cc2ccccc2F)NC(=O)[C@@H](NC(=O)CNC(=O)[C@H](CCC(=O)O)NC(=O)C(C)(C)NC(=O)[C@@H](N)Cc2ccc(O)cc2)[C@@H](C)O)[C@@H](C)O)CCCC1)[C@@H](C)CC)[C@@H](C)CC)C(=O)N[C@@H](CCC(=O)O)C(=O)NCC(=O)NCC(=O)N[C@@H](CCCCNC(=O)COCCOCCNC(=O)COCCOCCNC(=O)CC[C@H](NC(=O)CCCCCCCCCCCCC(=O)O)C(=O)O)C(=O)N[C@@H](CO)C(=O)N[C@@H](CO)C(=O)NCC(=O)N[C@@H](C)C(=O)N1CCC[C@H]1C(=O)N1CCC[C@H]1C(=O)N1CCC[C@H]1C(=O)N[C@@H](CO)C(N)=O` [Example 211]: the Emax stood at 99% in assay [1] (setting [9]), 93.1% in assay [1] (setting [10]), 64.5% in assay [3] (setting [14]) and 91.6% in assay [3] (setting [15]). The half-maximal effective concentration (EC50) is above 9950 nM in assay [2] (setting [11]), above 9950 nM in assay [2] (setting [12]) and 2.16 nM in assay [3] (setting [13]).
Take `CC[C@H](C)[C@H](NC(=O)[C@H](CC(C)C)NC(=O)[C@](C)(Cc1ccc(O)cc1)NC(=O)[C@@H](CCC(=O)O)NC(=O)[C@@H](NC(=O)[C@H](Cc1ccccc1)NC(=O)[C@H](CCC(=O)O)NC(=O)C(C)(C)NC(=O)[C@H](CCC(N)=O)NC(=O)[C@H](C)NC(=O)[C@H](CCCCNC(=O)COCCOCCNC(=O)COCCOCCNC(=O)CC[C@H](NC(=O)CCCCCCCCCCCCC(=O)O)C(=O)O)NC(=O)[C@H](CCCN)NC(=O)[C@H](CC(=O)O)NC(=O)[C@H](CC(C)C)NC(=O)[C@](C)(CC(C)C)NC(=O)[C@@H](NC(=O)[C@H](CO)NC(=O)[C@H](Cc1ccncc1)NC(=O)[C@H](CC(=O)O)NC(=O)[C@H](CO)NC(=O)[C@@H](NC(=O)[C@](C)(Cc1ccccc1F)NC(=O)[C@@H](NC(=O)CNC(=O)[C@H](CCC(=O)O)NC(=O)C(C)(C)NC(=O)[C@@H](N)Cc1ccc(O)cc1)[C@@H](C)O)[C@@H](C)O)[C@@H](C)CC)[C@@H](C)CC)C(=O)N[C@@H](CCC(=O)O)C(=O)NCC(=O)NCC(=O)N[C@@H](CCCCNC(=O)COCCOCCNC(=O)COCCOCCNC(=O)CC[C@H](NC(=O)CCCCCCCCCCCCC(=O)O)C(=O)O)C(=O)N[C@@H](CO)C(=O)N[C@@H](CO)C(=O)NCC(N)=O` [Example 183] (H-Y[Aib]EGT[αMePhe(2-F)]TSD[4Pal]SI[αMeL]LD[Orn]K([AEEA-AEEA-γGlu-C14 diacid])AQ[Aib]EFI[dE][αMeY]LIEGGK([AEEA-AEEA-γGlu-C14 diacid])SSG-NH2): the EC50 was 66.6 nM in assay [1] (setting [11]); 1.37 nM in assay [1] (setting [12]); above 9950 nM in assay [2] (setting [11]); above 9950 nM in assay [2] (setting [12]); 1.22 nM in assay [3] (setting [13]); 0.0326 nM in assay [3] (cAMP, incubated at 37° C., 0.1% bovine casein (no human serum albumin)). Besides, the Emax in assay [1] (setting [9]) was determined as 97.3%; in assay [1] (setting [10]) it was 93.9 ± 4.99%; in assay [3] (setting [14]), 75.5%; in assay [3] (setting [15]), 93.5 ± 1.46%.
